In general, IC50 refers to the concentration at which inhibition is half-maximal. High values mean weaker potency, low ones greater potency.

Structures are written as SMILES. Where a name gives a salt, the structure may show the parent alone.

T1 sequence (Q99705 whole entry): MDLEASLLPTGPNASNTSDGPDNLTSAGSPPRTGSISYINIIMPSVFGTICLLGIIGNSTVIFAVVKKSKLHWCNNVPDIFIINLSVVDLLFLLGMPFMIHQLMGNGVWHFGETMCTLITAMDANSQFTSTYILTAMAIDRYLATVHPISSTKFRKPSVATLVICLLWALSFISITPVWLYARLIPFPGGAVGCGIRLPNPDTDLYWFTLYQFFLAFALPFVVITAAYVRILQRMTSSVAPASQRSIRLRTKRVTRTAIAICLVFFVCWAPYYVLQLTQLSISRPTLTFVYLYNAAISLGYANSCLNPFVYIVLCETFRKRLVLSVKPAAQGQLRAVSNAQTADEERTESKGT

This assay has as its target T1, hMCH-1R (Homo sapiens, UniProt Q99705).
T1 construct: expressed in transfected cells; host or cells: CHO/Galpha16 cells (stably transfected), membranes
Nature of the assay: MCH-1 receptor binding test (125I-MCH binding to membranes of hMCH-1R transfected CHO/Galpha16 cells). The following applies: membranes of CHO/Galpha16 cells stably transfected with human hMCH-1R, 100 pM 125I-MCH. Here is the method: After the incubation the reaction is filtered using a cell harvester through 0.5% PEI treated fibreglass filters (GF/B, Unifilter Packard). The membrane-bound radioactivity retained on the filter is then determined after the addition of scintillator substance (Packard Microscint 20) in a measuring device (TopCount of Packard). […] The analysis of the concentration binding curve is carried out on the assumption of one receptor binding site.
The compound `c1ccc(COc2ccc(CCc3ccc(CN4CCCC4)cn3)nn2)cc1` [Example 4.1] came in with an IC50 of 16 nM.

Take `OC1CCN(CCc2ccc(CCc3ccc(OCc4ccccc4)nn3)nc2)CC1` [Example 31.10]: the IC50 was 4 nM.

`CC1CCCCN1Cc1ccc(CCc2ccc(OCc3ccccc3)nn2)nc1` (centres unmarked) [Example 4.4] registered an IC50 of 8 nM.

Take `CN(Cc1ccccc1)c1ccc(CCc2ccc(CN3CCCC3)cc2)nn1` [Example 16.2, Benzyl-methyl-{6-[2-(4-pyrrolidin-1-ylmethyl-phenyl)-ethyl]-pyridazin-3-yl}-amine]: the half-maximal inhibitory concentration (IC50) is 590 nM.

For the compound `OC1CCN(Cc2ccc(CCc3ccc(OCC4CCCCO4)nn3)cc2)CC1` (centres unmarked) [Example 22.2, 1-(4-{2-[6-(Tetrahydro-pyran-2-ylmethoxy)-pyridazin-3-yl]-ethyl}-benzyl)-piperidin-4-ol], the concentration for half-maximal inhibition (IC50) turned out to be 136 nM.

Take `COC1CCN(Cc2ccc(C(=O)Cc3ccc(OCc4ccc(F)cc4)nn3)cc2)CC1` [Example 15.1, 2-[6-(4-Fluoro-benzyloxy)-pyridazin-3-yl]-1-[4-(4-methoxy-piperidin-1-ylmethyl)-phenyl]-ethanone]: the IC50 came out at 9 nM.

Compound `COCCN(C)Cc1ccc(CCc2ccc(OCc3ccc(F)cc3)nn2)cc1` [Example 10.5] displayed an IC50 of 4 nM.

Compound `c1ccc(COc2ccc(CCc3ccc(CN4CCOCC4)cc3)nn2)cc1` [Example 1.1, 4-{4-[2-(6-Benzyloxy-pyridazin-3-yl)-ethyl]benzyl}-morpholine] had an IC50 of 4 nM.

Turning to `Fc1ccccc1COc1ccc(CCc2ccc(CN3CCCC3)cc2)nn1` [Example 12.2, 3-(2-Fluoro-benzyloxy)-6-[2-(4-pyrrolidin-1-ylmethyl-phenyl)-ethyl]-pyridazine trifluoroacetate], the IC50 is 13 nM.

In turn, `CC(=O)N1CCN(CCOc2ccc(CCc3ccc(OCc4ccccc4)nn3)nc2)CC1` [Example 29.10] returned an IC50 of 19 nM.

`c1ccc(COc2ccc(CCc3ccc(CNCc4cccnc4)cn3)nn2)cc1` [Example 4.2] had an IC50 of 20 nM.

The record behind these values is patent publication US20100197908A1 (Boehringer Ingelheim International GmbH, priority 2006, published 2010).
